These results are taken from patent publication US8686224B2, “Plant defense signal peptides” (priority 2005, dated 2014).

Test [1] concerns defense gene expression in excised Arabidopsis leaves. Description: Excised-leaf assay, semi-quantitative RT-PCR of gene expression. In kind it is in vivo, Arabidopsis thaliana. The method, then: Excised-leaf assays. AtPep1 peptide dissolved in double distilled water was supplied to excised leaves of 3 to 4 week old Arabidopsis plants. Leaves were excised and the petioles were immersed in 800 μL centrifuge tubes containing either the peptide solution or distilled water, and placed in a closed clear plexiglass box containing a thin layer of water for humidity, and a small opening to allow air to enter. Boxes were incubated in a growth chamber under the plant growth conditions described above and sprayed with a fine mist of distilled water every half hour to ensure humidity and prevent wilting. To determine variations in basal levels of the AtproPep1 transcript among assays, four different leaves from four different plants were used for each treatment, and leaves supplied with either water or AtPep1 were taken from the same plants. Assays were terminated by immersing the leaves in liquid nitrogen.
Semi-quantitative RT-PCR analysis of relative gene expression levels. RNA was isolated using Trizol reagent and manufacturer's instructions (Invitrogen. Carlsbad Calif.), and 2 μg of RNA template was reverse transcribed with a RETROscript kit (Ambion, Austin Tex.). PCR reactions were carried out with ExTaq Hot Start polymerase and reagents (Fisher Scientific, Pittsburgh Pa.). The AtproPep1 forward and reverse primers with the respective sequences of 5′ […] 3′ (SEQ ID NO: 59) and 5′ […] 3′ (SEQ ID NO: 60) generated a 310 bp intron-spanning product. Primers to β-tubulin (At5g62690) of 5′ […] 3′ (SEQ ID NO: 73) and 5′ […] 3′ (SEQ ID NO: 74) generated a 681 base pair intron-spanning product. An initial denaturing/polymerase activating step of 5 minutes at 94° C. was followed by 31 repetitions of the following three steps: a thirty second denaturation phase at 94° C., a thirty second annealing period at 55.5° C., and a one minute elongation step at 72° C. The amplification program was terminated with a 10 minute final 72° C. elongation phase.
The products of each reaction were separated by electrophoresis and were visualized on a Bio Imaging System (SynGene, Frederick Md.) using GeneSnap version 6.00.26 software (SynGene, Frederick Md.). A high resolution image of the gel was analyzed using GeneTools analysis software version 3.02.00 (SynGene, Frederick Md.). Relative band intensities for each band were normalized to the β-tubulin band. A numerical ratio of amplified AtproPep1 cDNA to amplified tubulin cDNA was obtained for every sample. To calculate average values, semi-quantitative RT-PCR assays were performed in duplicate, and RNA extractions were performed in triplicate.
Analysis of gene expression using RT-PCR. Gene expression was analyzed using RT-PCR (Nishimura et al., Plant Cell 16:1365-1377, 2004).
Expression analysis of AtproPep1 in response to abiotic and biotic cues. As a first step in seeking a possible function for AtproPep1 and its encoded peptide, the basal expression level of the gene was assessed in leaves, stems, roots and flowers of Arabidopsis plants was studied using semi-quantitative RT-PCR analysis of AtproPep1 gene expression in response to treatment of leaves with MeJA, ethephon, MeSA, and AtPep1. The relative abundance of the proAtPep1 transcript was estimated from the expression of the β-tubulin gene as a control. Leaves were wounded by crushing once across the mid-vein with a hemostat. Plants were sprayed with a 250 μM solution of MeJA in 0.1% Triton X-100; with a 2 μM solution of MeSA in 0.1% Triton X-100 or with a 7 mM solution of ethephon in 0.1% Triton X-100. AtPep1 peptide (10 nM in water) was supplied through cut petioles of excised leaves. Total RNA was extracted and analyzed.
In order to determine whether AtPep1 regulates defense gene expression, we determined the fold induction of defense related genes in excised Arabidopsis leaves in response to 10 nM AtPep1 supplied through their cut petioles. […]

Test [2] relates to PDF1.2 and PR-1 gene expression. Nature of the test: Spraying of four-week-old soil-grown plants, qRT-PCR of PDF1.2 and PR-1. In kind it is in vivo, Arabidopsis thaliana. The text has this:
[…]1 and […]2 mutants are unable to respond to AtPEP1. To further examine the importance of […]1 and […]2 in AtPep1 signaling, the expression level of WRKY transcription factor genes, WRKY22, WRKY29, WRKY33. WRKY53 and WRKY55, were monitored by qRT-PCR after supplying AtPep1 to wild type Arabidopsis and T-DNA insertional mutants of […]1 and […]2. These WRKY genes were reported to be induced by the fungal PAMP, chitin (Wan et al., Plant Cell 20: 471-481, 2008), and the bacterial PAMPs, […] et al., Cell 125:749-760, 2006). […] In the double mutants, […] […] We also examined the effect of supplying AtPep1 to the double mutants on the expression of the antimicrobial protein genes, defensin (PDF1.2) and pathogenesis related protein (PR-1) […] peptides are known to induced these genes (Huffaker and Ryan, Proc. Natl. Acad. Sci. USA 104: 10732-10736, 2007). Since the expression levels of PDF1.2 and PR-1 gene in Arabidopsis seedlings grown in liquid medium were already high, the method of supplying AtPep1 was changed. Four-week-old Arabidopsis plants grown in soil were sprayed with 1 μM AtPep1 in 0.01% Silwet L-77, and subjected to qRT-PCR analysis after 6 hours.
(In qPCR the cycle at which signal appears reflects the starting amount.)

Setting [3] is: sprayed 1 μM in 0.01% Silwet L-77, 6 hours, wild type.

“Also recorded” adds a separate entry of the source.

For H-ATKVKAKQRGKEKVSSGRPGQHN-OH [AtPep1], the “expression of the AtproPep1 gene” value in test [1] (10 nM through cut petioles of excised leaves, within two hours) was “induced expression”. Also, the “expression of PDF1.2 and PR-1” value in test [1] (10 nM through cut petioles, 2 hr, wild type) is recorded as “most strongly expressed; also recorded: induced a strong expression”. Also, the “expression of AtproPep1, PDF1.2 or PR-1 in mutants” value in test [1] (10 nM, 2 hr, triple mutant fad3-2, fad7-2, fad8 and mutant ein2-1) was “did not induce”. Moreover, in test [1] (10 nM, two hours, wild type), the “expression of LOX2 and VSP2” value is reported as “not induced”; the “expression of PR-3, PR-4 and TAT” value is recorded as “expressed at lower levels”. In test [1] (supplied through cut petioles of excised leaves), the “expression of At5g64905, At5g64900, At5g64890 and At5g09980” value was “expressed relatively strongly”. In test [2] (setting [3]), the “induction of PDF1.2” value came to 30 fold and the “induction of PR-1” value came to 60 fold. The “induction of PDF1.2 and PR-1 in the double mutants” value in test [2] (sprayed 1 μM, 6 hours) was “not induced”.
